The source of these data is patent US20250115571A1, “OXOPIPERAZINE DERIVATIVES” (Inthera Bioscience AG, priority 2017, published 2025).

Experiment [1] concerns HPV-positive head-and-neck squamous cell carcinoma model #HN11303. Kind of experiment: Patient-derived xenograft mouse model for head-and-neck squamous cell carcinoma (HN11303). The format is in vivo. The conditions noted are these: subcutaneous HPV-positive HNSCC model, female NMRI nu/nu mice. As to the method: Female NMRI nu/nu mice were injected with cells derived from a human head-and-neck cancer (model #HN11303, an HPV-positive head-and-neck squamous cell carcinoma, EPO-GmbH, Berlin, Germany). The cells were inoculated subcutaneously into the left flank of 40 mice. Thirteen days later tumors reached a mean volume of approximately 107 mm^3, and mice were randomly assigned to five treatment groups of each eight mice (TABLE 23). Body weights were measured twice weekly. Tumor burden was assessed by caliper measurement twice weekly. Dosing breaks were applied when tolerability issues arose (body weight loss>10). The study was terminated five weeks post first dosing. The experiment was performed in the EPO animal testing facility (Experimental Pharmacology and Oncology GmbH, 13125 Berlin-Buch, Germany).

In the next experiment the test system is CaSki cells. Description: Colony Formation Assay (CFA), 14 days. The format is cell-based. To be noted: Homo sapiens, Ca-Ski, 336 h; for inhibition at 0.7 µM: colony formation assay, class by % inhibition at 0.7, 6 or 50 μM. From the text:
Cell culture: CaSki cells were obtained from CLS GmbH, Eppelheim, Germany (cat. 300145) and subcultured in ready-to-use RPMI1640 Media (CLS GmbH cat. 820700) after addition of “Antibiotic Antimycotic Solution” (Sigma-Aldrich, St Louis, USA, cat. A5955) at 1:100 dilution. CaSki cells were expanded and aliquots kept frozen in liquid nitrogen according to manufacturer's instructions. Once thawed, aliquots were passaged every second or third day at a seed density of 20′000 cells/cm^2; and used for a maximum of twenty passages.
Preparation of the cells for CFA: Cell culture flasks were rinsed twice with Ca++/Mg++-free Phosphate-Buffered Saline (DPBS, CLS GmbH cat. 860015) and incubated with Accutase (CLS GmbH cat. 830100) for 15 min at 37° C. Cells were resuspended in a four-fold volume of ready-to use RPMI, centrifuged at 300 g for 10 minutes, the supernatant discarded and the cells resuspended in ready-to-use RPMI1640 by pipetting up and down ten times with a serological pipette. Cell density was determined with a Via-1 Cassette (Chemometec, Allerod, Denmark) on a Nucleocounter NC 3000 (Chemometec). The required amount of cells was first diluted 1:10 in ready-to-use RPMI; cells pipetted five times up-down with a serological pipette; and the 1:10 solution added to the final volume needed for the whole assay setup. Cells were mixed again by pipetting up and down twenty times with a serological pipette. The final cell density was 70 cells/ml.
Seeding: Cells were seeded column-wise in 6-well plates, while triplicates were treated row-wise. Three ml cell suspension solution (210 cells) were added per well.
Treatment: Compound stock solutions were prepared at a concentration of 30 mM in 50% DMSO/50% water; and diluted in the same solution so that the volume added to the wells was of 5 μl and the final DMSO well concentration 0.08%. Untreated cells (negative controls) were incubated in a) medium only; and b) 0.08% DMSO. […] Tests showing less than 75% or more than 95% inhibition were repeated. The plates were swirled gently after addition of the compounds and the cells incubated for 14 days at 37° C. Culture incubation solutions were replaced after one week.
Staining: Colonies were washed twice with ice-cold DPBS and fixed on ice with 1 ml ice-cold 10% methanol solution for 30 min. The methanol solution was removed and colonies incubated with 0.1% Crystal Violet/DBPS for 20 min at room temperature. The wells were rinsed with water at room temperature, let dry and colonies were counted. Compounds e.g., compounds of Table 2 and 3 were classified as follows: […]

For the next experiment, the system named is CaSki. Description: 9-day colony survival assay (CFA). The format is cell-based. The conditions noted are these: Homo sapiens, Ca-Ski, 216 h, CaSki (cervix), read-out: GI50 (50% growth inhibition). From the text:
Cell culture. CaSki cells (cervical cancer) were obtained from CLS GmbH, Eppelheim, Germany (cat #300145) and subcultured in ready-to-use RPMI1640 Media (CLS #820700) after addition of “Antibiotic Antimycotic Solution” (Sigma-Aldrich, St Louis, USA) at 1:100 dilution. The cells were expanded, and aliquots kept frozen in liquid nitrogen according to manufacturer's instructions; tested for mycoplasma contamination and genotyped (Microsynth AG, Balgach, Switzerland). Once thawed, aliquots were passaged every second or third day at a seed density of 20′000 cells/cm^2; and used for a maximum of twenty passages. For passaging, cell culture flasks were rinsed twice with Ca++/Mg++-free Phosphate-Buffered Saline (DPBS, CLS #860015) and incubated with Accutase (CLS #830100) for 15 min at 37° C. Cells were resuspended in a four-fold volume of ready-to-use RPMI, centrifuged at 300 g for ten minutes, the supernatant discarded and the cells resuspended in ready-to-use RPMI1640 by pipetting up and down five times with a serological pipette. Cell density was determined with a Via-1 Cassette (Chemometec, Allerod, Denmark) on a Nucleocounter NC 3000 (Chemometec). Where not stated, consumables and chemicals were purchased from well-known suppliers.
Preparation of the cells for CFA. Cell culture flasks were rinsed twice with DPBS and incubated with Accutase for 15 min at 37° C. Cells were resuspended in a four-fold volume of ready-to use RPMI, centrifuged at 300 g for ten minutes, the supernatant discarded and the cells resuspended in ready-to-use RPMI1640 by pipetting up and down ten times with a serological pipette. Cell density was determined with a Via-1 Cassette on a Nucleocounter NC 3000. The required amount of cells was first diluted 1:10 in ready-to-use RPMI; cells pipetted five times up-down with a serological pipette; and the 1:10 solution added to the final volume needed for the whole assay setup. Cells were mixed again by pipetting up and down twenty times with a serological pipette. The cell density used for the experiment was of 140 cells/ml.
Seeding. Cells were seeded row-wise in 12-well plates, while triplicates were treated column-wise (i.e. all the first rows were seeded first, then the second rows, and finally the third rows). One and a half ml cell suspension solution (a total of 210 cells) were added per well.
Treatment. Compound stock solutions were prepared at a concentration of 30 mM in 50% DMSO/50% water; and diluted in the same solution so that the volume added to the wells was of 2.5 μl and the final DMSO well concentration of 0.08%. Untreated cells (negative controls) were incubated in a) medium only; and b) 0.08% DMSO. […] The plates were swirled gently after addition of the compounds and the cells incubated for nine days at 37° C. Culture incubation solutions were replaced after five days.
Staining. Colonies were washed twice with ice-cold DPBS and fixed on ice with 1 ml ice-cold 10% methanol solution for 30 min. The methanol solution was removed and colonies incubated with 0.1% Crystal Violet/DBPS for 20 min at room temperature. The wells were rinsed consecutively with 1.5, 1, and 0.5 ml water at room temperature and let dry.
Destaining and data evaluation. […] Absorbance was measured at 600 nm with a SpectraMax M2e reader (Molecular Devices, Sunnyvale, CA, USA). Percentage of colony formation was calculated from the average of the well triplicates compared to the untreated DMSO controls after subtraction of blank values. […]

A further experiment concerns PC3. Kind of experiment: 9-day colony survival assay (CFA). Type of experiment: cell-based. The conditions noted are these: Homo sapiens, PC-3, 216 h, PC3 (prostate), read-out: GI50 (50% growth inhibition).
A further experiment deals with HCT116. Kind of experiment: 9-day colony survival assay (CFA). The format is cell-based. The conditions noted are these: Homo sapiens, HCT-116, 216 h, HCT116 (colon), read-out: GI50 (50% growth inhibition).
In a further experiment the test system is A549. Kind of experiment: 9-day colony survival assay (CFA). Type of experiment: cell-based. To be noted: Homo sapiens, 216 h, A549 (lung), read-out: GI50 (50% growth inhibition).

For `CC(C)C[C@@H]1NCCN([C@@H](CC(C)C)C(=O)N2CCC(Cc3ncc[nH]3)CC2)C1=O` [Compound 57, (S)-1-[(S)-1-({4-[(1H-Imidazol-2-yl)methyl]-1-piperidyl}carbonyl)-3-methylbutyl]-3-isobutyl-2-piperazinone], the “mean TV” value in experiment [1] (day 13) is 0.1073 cm^3; in experiment [1] (day 15), 0.1106 cm^3; in experiment [1] (day 18), 0.1166 cm^3; in experiment [1] (day 21) it was 0.1081 cm^3; in experiment [1] (day 25) it was 0.1233 cm^3; in experiment [1] (day 29), 0.1421 cm^3. The “mean TV” value in experiment [1] (day 33) is 0.2009 cm^3; in experiment [1] (day 36) it was 0.1776 cm^3. Besides, the inhibition at 10 µM in the experiment on CaSki cells (10 μM, reference compound standard treatment, 14 days) was 80 to 90%.

For `CC(C)C[C@@H]1NCCN([C@H](C(=O)N2CCC(CC(N)=O)CC2)C(C)C)C1=O` [Compound 90, (1-{(S)-2-[(S)-3-Isobutyl-2-oxo-1-piperazinyl]-3-methylbutyryl}-4-piperidyl)acetamide], the inhibition at 0.7 µM in the experiment with CaSki cells is below 0%.

In the experiment on CaSki cells, `CC(C)(C)C[C@@H](C(=O)N1CCC(CC(N)=O)CC1)N1CCN[C@@H](CC2CC2)C1=O` [Compound 94, (1-{(S)-2-[(S)-3-(Cyclopropylmethyl)-2-oxo-1-piperazinyl]-4,4-dimethylvaleryl}-4-piperidyl)acetamide] showed an inhibition at 0.7 µM below 0%.

`CCCC[C@@H]1NCCN([C@@H](CC2CC2)C(=O)N2CCC(CC(N)=O)CC2)C1=O` [Compound 106, (1-{(S)-2-[(S)-3-Butyl-2-oxo-1-piperazinyl]-3-cyclopropylpro-pionyl}-4-piperidyl)acetamide] yielded an inhibition at 0.7 µM in the experiment on CaSki cells below 0%.

`CC(C)C[C@@H](C(=O)N1CCC(CC(N)=O)CC1)N1CCN[C@@H](CC(C)(C)C)C1=O` [Compound 114, (1-{(S)-2-[(S)-3-Neopentyl-2-oxo-1-piperazinyl]-4-methylvaleryl}-4-piperidyl)acetamide] returned an inhibition at 0.7 µM in the experiment with CaSki cells below 0%.

`CC(C)C[C@@H]1NCCN([C@@H](CC(C)C)C(=O)N2CCC3(C[C@@H]2C)OCC(c2nccn2C)CO3)C1=O` (stereo partly drawn) [Compound 260, (S)-1-[(S)-1-({(S)-8-Methyl-3-(1-methyl-1H-imidazol-2-yl)-1,5-dioxa-9-aza-9-spiro[5.5]un-decyl}carbonyl)-3-methylbutyl]-3-isobutyl-2-piperazinone]: in the experiment on CaSki cells, the inhibition at 0.7 µM was below 0%.

Consider `CC(C)C[C@@H]1NCCN([C@@H](CC(C)C)C(=O)N2CCC3(C[C@@H]2C)OCC(c2ccccn2)CO3)C1=O` (stereo partly drawn) [Compound 285, (S)-1-[(S)-1-({(S)-8-Methyl-3-(2-pyridyl)-1,5-dioxa-9-aza-9-spiro[5.5]un-decyl}carbonyl)-3-methylbutyl]-3-isobutyl-2-piperazinone], for which the inhibition at 0.7 µM in the experiment with CaSki cells is below 0%.

As for `CC(C)C[C@H]1C(=O)N([C@@H](CC(C)C)C(=O)N2CCC3(C[C@@H]2C)OCC(CN2CCCC2)CO3)CCN1C` (stereo partly drawn) [Compound 287, (3S)-4-methyl-1-[(2S)-4-methyl-1-oxo-1-[(3s,6s,8S)-8-methyl-3-(pyrrolidin-1-ylmethyl)-1,5-dioxa-9-azaspiro[5.5]undec-an-9-yl]pentan-2-yl]-3-(2-methylpropyl)piper-azin-2-one (^≠), isomer Z], the GI50 in the experiment on CaSki was 13 nM; with PC3, 7 nM; in the experiment with HCT116 it was 1.5 nM; with A549 it was 20 nM.

In the experiment on CaSki cells, `CC(C)C[C@@H]1NCCN([C@@H](CC(C)C)C(=O)N2CCC3(C[C@@H]2C)O[C@H]2C[C@@H](N(C)C)C[C@H]2O3)C1=O` (stereo partly drawn) [Compound 292, (S)-1-[(S)-1-({(1R,5S,2′S)-7-(Dimethylamino)-2′-methylspiro[2.4-di-oxabicyclo[3.3.0]oc-tane-3,4′-piperidin]-1′-yl}carbonyl)-3-methylbutyl]-3-isobutyl-2-piperazinone] showed an inhibition at 0.7 µM below 0%.

For `CC(C)C[C@@H]1NCCN([C@@H](CC(C)C)C(=O)N2CCC3(C[C@@H]2C)O[C@H]2CN(C)CC[C@H]2O3)C1=O` (stereo partly shown) [Compound 296], the inhibition at 0.7 µM in the experiment on CaSki cells was below 0%.

In the experiment on CaSki cells, `CC(C)C[C@@H]1NCCN([C@@H](CC(C)C)C(=O)N2CCC3(C[C@@H]2C)OC2CN(C)C[C@@H]2O3)C1=O` (stereo partly drawn) [Compound 300, (S)-1-[(S)-1-({(2′S)-7-Methyl-2′-methylspiro[2.4-dioxa-7-azabicyclo[3.3.0]oc-tane-3,4′-piperidin]-1′-yl}carbonyl)-3-methylbutyl]-3-isobutyl-2-piperazinone] registered an inhibition at 0.7 µM below 0%.
